{"source": "patent US4680382A", "about": "“Analogues of actinomycin D” (priority 1986, dated 1987)", "key": {"calf-thymus DNA": {"tested_on": "calf-thymus DNA", "test": "Equilibrium binding to calf-thymus DNA, Scatchard plots of binding isotherms (spectrophotometric)", "settings": "Scatchard plot", "description": "(§1) The \"reverse\" analogues bind to calf-thymus DNA, but the spectrophotometrically determined binding (Kapp and Bapp, equilibrium binding values) constants are found to be lower than those of AMD. The binding is also measured by thermal denaturation of DNA.\n(§2) The equilibrium binding constants (Kapp and Bapp) of the \"reverse\" methyl 7a and the \"reverse\" phenyl 8a were determined from the Scatchard plots of binding isotherms; the Scatchard plots are produced according to the previously described methods using calf-thymus DNA [Sengupta et al, Biochem. Biophys. Acta 521, 89 (1978)]. The Kapp values are 2.5×10^6 and 2.3×10^6 M^-1, respectively; corresponding Bapp values are 0.038 and 0.036. […] But, these \"reverse\" analogues associate with DNA less strongly; their frequency of binding is also lower compared to that of AMD. However, the \"reverse\" analogues fail to cause any measurable change in the ratio of the intrinsic viscosity (γ) of DNA with the increasing ratios of [ligand]/DNA base pair (r), even when low molecular weight DNAs (0.5×10^5 to 1.0×10^5) were employed."}, "DNA": {"tested_on": "DNA", "test": "Thermal denaturation of DNA (ΔTm)", "format": "binding", "description": "as §1, §2\nMelting points are determined on a Thomas-Hoover melting point apparatus at a heating rate of 2° C./min. Thin-layer chromatography was performed on silica gel plates (Brinkmann Instrument Inc.). Solvent systems were (A) EtOAc-acetone (4:1), (B) CHCl3 -MeOH (9:1) and (C) Cifferri, the organic phase of the mixture EtOAc-MeOH-H2 O (20:1:20). High-performance liquid chromatography was carried out on a Varian Model 5020 gradient liquid chromatograph equipped with a CD-111L chromatography data system and fitted with a Varian reversed-phase C18 column with the following solvent systems: I, CH3 CN-5 mM NH4 OAc buffer, pH 6.4 (68:32 isocratic), flow rate 1.5 mL/min; II, 65-95% water-methanol gradient for 70 min, 1 mL/min; III, 10-90% H2 O-MeOH gradient for 120 min, 1 mL/min, with UV-visible variable- and fixed-wavelength dual detectors at 254, 440, 470 and 520 nm. IR spectra were obtained on a Perkin-Elmer Model 237 Infra Cord with KBr micropellets or in chloroform solutions. UV-visible spectra were obtained on a Gilford 250 spectrophorometer, which, with the addition of a base-line reference compensator (Analog Multiplexer 5053) and thermoprogrammer, auto four cell programmer and thermoelectric cell holder 2577, were used to obtain thermal denaturation curves. Specific rotation values were determined in chloroform solutions with a Cary 60 spectropolarimeter. NMR spectra were obtained in a JEOL FQ-90 MHz spectrometer equipped with Fourier transform. EPR spectra analyses were recorded in a Varian E-9 EPR spectrometer. All elemental analyses were within ±0.4%."}, "[1]": {"tested_on": "CCRF-CEM human lymphoblastic leukemic cells", "test": "In vitro cytotoxicity against CCRF-CEM cells", "format": "cell-based", "settings": "48 hr", "description": "^a Human lymphoblastic leukemic cells.\nThe analogues were tested for their cytotoxicity against tumor cells (time, 48 hr). […] This may be associated with the initial microsomal transformation of the \"reverse\" analogues to \"symmetrical\" analogue and/or other alternate bioactive forms (e.g., free-radicals, O2^-), followed by deactivation via formation of conjugates and facile elimination of these from the host. The \"reverse\" analogues show reduced toxicity in vivo and also the tritiated \"reverse\" 7a is metabolized in vitro."}, "P388 cells [2]": {"tested_on": "P388 cells", "test": "Inhibition of RNA synthesis (2-[14C]uridine incorporation) in P388 cells", "format": "cell-based, murine", "description": "(§3) Experiments for inhibition of nucleic acid synthesis in tumor cells in vitro were carried out with P388 tumor cells, details of which were reported by Sengupta et al, J. Med. Chem., 18, 1175 (1975). […] AMD-OZLs inhibit either process with equal activity and with the potency of its metabolite 7-hydroxy-AMD.\n^b IC50 (RNA) = concentration of inhibitor in μM required to\ncause 50% reduction (in 1 hr) in 2[^14 C]uridine incorporation into\nacid precipitable material with use of P388 cells."}, "P388 cells [3]": {"tested_on": "P388 cells", "test": "Inhibition of DNA synthesis (methyl-[3H]thymidine incorporation) in P388 cells", "format": "cell-based, murine", "settings": "50% reduction in 1 hr of methyl-[3H]thymidine incorporation, read-out: IC50 DNA synth", "description": "as §3\n^c IC50 (DNA) = concentration of inhibitor in μM required to\ncause 50% reduction (in 1 hr) in methyl[^3 H]thymidine incorporation\ninto acid precipitable material with use of P388 cells."}, "[4]": {"tested_on": "P388 lymphocytic leukemia", "test": "In vivo antitumor activity against P388 leukemia", "design": "species or system BDF1 mice", "description": "The analogues were tested for their antitumor activities in P388 lymphocytic leukemia in male BDF1 mice. The tumor was implanted intraperitoneally (ip) with 10^6 cells. The drugs were also administered ip once daily on days 1, 5 and 9, beginning 1 day after tumor transplantation. Analogues were tested over a range of doses, but only the optimal nontoxic doses are listed.\n^a 10^6 P388 cells implanted ip on day 0 into groups of eight\nBDF1 male mice. Drugs administered ip. MST (range), median survival\ntime in days (range of individual animal deaths); % ILS, percent increase\nin life span, calculated 100(T/C - 1), where T and C are median survival\ntimes of treated and control animals; surv, number of surviving mice/tota"}, "B16 melanoma": {"tested_on": "B16 melanoma", "test": "In vivo antitumor activity against B16 melanoma", "design": "species or system BDF1 mice", "description": "AMD-OZL analogues 9a and 10a were about as active as AMD and 7-hydroxy-AMD. The potencies of these analogues are reduced in comparison to that of AMD; their optimal doses were higher than that of AMD.\n^a 0.2 mL of 1:5 (weight/volume) brei of B16 melanoma implanted\nip on day 0 in groups of nine BDF1 mice. Drugs administered ip.\n^b MST (range) median survival time in days (range of individual\n^c % ILS (surv), percent increase in lifespan (survivors on day"}, "P388/S": {"tested_on": "P388/S", "test": "In vivo activity against P388/S (adriamycin sensitive) leukemia, Table VII", "design": "species or system BDF1 mice", "description": "(§4) ^a Male BDF1 mice inoculated ip: 10^6 cells inoculum, day 0.\n(§5) Drugs administered in 10% dimethyl sulfoxidesaline on days 1, 5 and 9. %\n(§6) ILS = percent increase in life span. Fractions in parentheses = tumorfree\n(§7) survivors/total on day 60. P388/S (adriamycin sensitive) and P388/ADR\n(§8) (adriamycin resistant) tumors were evaluated in the same experiment with […]"}, "P388/ADR": {"tested_on": "P388/ADR", "test": "In vivo activity against P388/adriamycin-resistant leukemia", "design": "species or system BDF1 mice", "description": "as §4, §5, §6, §7, §8"}, "[5]": {"test": "Maximum tolerated dose (LD10) in tumor-free BDF1 male mice", "format": "in vivo", "settings": "lethal dose for 10% normal BDF1 male mice, 21 days (LD10); ip days 1, 5 and 9", "description": "(§9) These analogues were also tested in tumor-free BDF1 male mice for determination of their MTD values (Table VIII). The animals (18-22 g) were given a broad range of doses of drugs in 5% dimethyl sulfoxide-saline on days 1, 5 and 9. Drugs were administered ip and the maximum tolerated doses of agents which caused death in only 10% of the tested animals in 21 days (i.e., LD10) were recorded as MTD. […] However, the MED values of 7-hydroxy-AMD and its precursor AMD-OZL 10a are high and are seven to tenfold of the MED values of 4a and 8a. On the basis of these MED values, the therapeutic indices of 8a and 4a are 70 and 96. The therapeutic index of 2a is 13, of 10a 10, and of AMD only 4.\n^c MTD (maximum tolerated dose) is the lethal dose\n(milligram/kilogram) for 10% normal BDF1 male mice (18-22 g); animal\ncalculated from a plot of logdose vs. percent mortality."}, "P388 Leukemia": {"tested_on": "P388 Leukemia", "test": "Minimum effective dose and therapeutic index vs. P388 leukemia", "format": "in vivo", "settings": "dose giving 45% increase in life span in P388 tumor bearing mice; ip days 1, 5 and 9", "description": "as §9\n^a Drugs administered ip once on days 1, 5 and 9 starting 1 day after\ntumor implantation. Determinations were made from analysis of plotted\n^b MED (minimum effective dose) is the dose (milligram/kilogram)\nproviding an increase in life span of 45% over control in P388 tumor"}}}
{"compound": "Cc1c2oc3c(C)c4oc(-c5ccccc5)nc4c(C(=O)NC4C(=O)NC(C(C)C)C(=O)N5CCCC5C(=O)N(C)CC(=O)N(C)C(C(C)C)C(=O)OC4C)c3nc-2c(C(=O)NC2C(=O)NC(C(C)C)C(=O)N3CCCC3C(=O)N(C)CC(=O)N(C)C(C(C)C)C(=O)OC2C)c(N)c1=O", "note": "[8a, 7-Amino-9,11-dimethyl-2-phenyl-8H-8-oxooxazolo [4,5-b]phenoxazine 4,6-bis[carbonyl-L-threonyl-D-valyl-L-prolylsarcosyl-L-N-methylvaline(threonine hydroxyl)] lactone]", "values": [{"measurement": "Bapp (equilibrium binding value)", "setting": "calf-thymus DNA", "result": 0.036}, {"measurement": "Kapp (equilibrium binding constant)", "setting": "calf-thymus DNA", "result": "2.3e+06", "unit": "M⁻¹"}, {"measurement": "ΔTm (DNA melting temperature)", "setting": "DNA", "result": "6.7±0.2", "unit": "°C"}, {"measurement": "in vitro (CCRF-CEM) ID50", "setting": "[1]", "result": 30, "unit": "nM"}, {"measurement": "IC50", "setting": "P388 cells [2]; 50% reduction in 1 hr of 2-[14C]uridine incorporation, read-out: IC50 RNA synth", "result": 70, "unit": "nM"}, {"measurement": "IC50 DNA/IC50 RNA", "setting": "P388 cells [2]; ratio", "result": 11.43}, {"measurement": "IC50", "setting": "P388 cells [3]", "result": 800, "unit": "nM"}, {"measurement": "surv (surviving mice/total mice at 60 days)", "setting": "[4]; P388, at optimal dose", "result": "4/8"}, {"measurement": "% ILS", "setting": "[4]; P388, at optimal dose, 100(T/C - 1)", "result": 382, "unit": "%"}, {"measurement": "MST (range)", "setting": "[4]; P388, at optimal dose, control 11.0 (9-12)", "result": "52.0 (49-58) days"}, {"measurement": "optimal dose", "setting": "[4]; P388, ip, days 1, 5 and 9, optimal nontoxic dose", "result": 375.0, "unit": "μg/kg per inj"}, {"measurement": "% ILS", "setting": "B16 melanoma; at optimal dose", "result": 103, "unit": "%"}, {"measurement": "surv (survivors on day 65/total injected)", "setting": "B16 melanoma; at optimal dose", "result": "5/9"}, {"measurement": "MST (range)", "setting": "B16 melanoma; at optimal dose, control 29 (20-48)", "result": "59 (53-59) days"}, {"measurement": "optimal dose", "setting": "B16 melanoma; ip, days 1, 5, 9", "result": 300, "unit": "μg/kg per inj"}, {"measurement": "P388/S % ILS", "setting": "P388/S; at optimal dose", "result": 382, "unit": "%"}, {"measurement": "P388/S tumor-free survivors/total on day 60", "setting": "P388/S; at optimal dose", "result": "4/8"}, {"measurement": "P388/S optimal dose", "setting": "P388/S; ip, days 1, 5 and 9", "result": 0.35, "unit": "mg/kg"}, {"measurement": "P388/ADR % ILS", "setting": "P388/ADR; at optimal dose", "result": 132, "unit": "%"}, {"measurement": "P388/ADR tumor-free survivors/total on day 60", "setting": "P388/ADR; at optimal dose", "result": "1/8"}, {"measurement": "P388/ADR optimal dose", "setting": "P388/ADR; ip, days 1, 5 and 9", "result": 0.6, "unit": "mg/kg"}, {"measurement": "MTD (maximum tolerated dose)", "setting": "[5]", "result": 1.80, "unit": "milligram/kilogram"}, {"measurement": "MED (minimum effective dose)", "setting": "P388 Leukemia", "result": 0.03, "unit": "milligram/kilogram"}]}
